{
  "source": "patent US20260069693A1",
  "about": "“UROLITHINS AND T-CELL MEDIATED IMMUNE RESPONSE” (priority 2022, published 2026)",
  "key": {"Pink1^−/− T cells": {"tested_on": "Pink1^−/− T cells", "assay": "aCD3/aCD28 stimulation of Pink1-/- T cells in presence of UA", "assay_type": "cell-based, mice", "text": "UA activates mitophagy in myocytes and hippocampal neurons via a Pink1/Parkin mediated stress-response (D'Amico et al., 2021). […] Moreover, UA stabilized Parkin protein expression (FIG. 4G). To functionally confirm the dependence of UA induced TSCM formation on Pink1/Parkin mediated mitophagy, the inventors activated Pink1^−/− T cells in the presence or absence of UA. Loss of Pink1 prevented the UA-induced lysosome formation as well as the decrease in mitochondrial content (FIG. 4H, I).\nSplenic murine T cells were isolated from mice aged 6-20 weeks by negative selection with EasySep mouse T cell isolation kit (Stem cell) according to the manufacturer's instructions. To monitor T cell proliferation, purified T cells were loaded with CellTrace Violet (C34557 ThermoFisher Scientific). T cell activation was initiated using αCD3/CD28 activation beads (11456D; ThermoFisher Scientific) at a ratio of 25 μl dynabeads per 0.5×10^6 T-cells. Cells were activated with 25-50 μM Urolithin A (Tocris) or DMSO in T cell activation Medium (RPMI (ThermoFisher Scientific) 10% FBS (South America origin), 10 mM Hepes (Sigma), 1× Non-Essential Amino Acid, 1 mM Sodium Pyruvate, 50 μM B-Mercaptoethanol, 100 U/ml penicillin, 100 μg/ml streptomycin and 2 mM Glutamax (ThermoFisher Scientific) for the indicated durations. In selected experiments, cells were stimulated in the presence of inhibitors, namely TCF1i (ICG-001; SelleckChem; 10 μM) and PGC-1αi (SR-18292, Sigma-Aldrich; 10 μm,). For subsequent analysis, activating beads were magnetically removed prior antibody staining. For human T cells, peripheral blood mononuclear cells were purified with a Ficoll-Paque (GE healthcare) gradient. T cells were enriched with EasySep Human T Cell Isolation Kit (StemCell) and activated with dynabead Human T-Activator CD3/CD28 for T Cell Expansion and Activation Kit (11131D; ThermoFisher Scientific), similar to murine T cell stimulation.\nFor flow cytometric analysis of mitochondria and lysosomes 500 μl of Mitotracker Red (200 nM; ThermoFisher) or Lysotracker Red DND-99 (75 nM; ThermoFisher) were applied followed by surface staining. To study changes in mitochondrial membrane potential, Mitoprobe TMRM kit (ThermoFisher) was used according to the manufacturer's instructions. Cell proliferation was assessed by CellTrace Violet (Invitrogen, C34557) at a concentration of 5 μM according to manufacturer's instructions. For human samples, cells were stained as described above with Fixable Viability Dye-eF780, αCD95-BV421 (DX2; 562616), αCD62L-PE (DREG-56; 555544), αCCR7-AF700 (150503; 561143), αCD45RO-APC (UCHL; 559865), αCD45RA-FITC (HI100; 555488), αCD8-PE-CF594 (RPA-T8; 562282) and αCD4-BV786 (OKT4; 566806) from BD."}, "T cells": {"tested_on": "T cells", "assay": "immunoblot, cell fractionation and immunofluorescence of stimulated T cells", "assay_type": "cell-based, mice", "method": "Activated T cells were incubated on Poly-L-lysine coated coverslips for 10 min at 37° C. and then fixed with 4% PFA for 10 min, followed by permeabilization with 0.25% Triton X-100 for 10 mins. Staining for Pgam5 was performed as previously described (Yamaguchi et al., 2019), using rabbit Anti-Pgam5 antibody (ab126534, Abcam). Immune complexes were detected with 1:200-diluted anti-rabbit IgG Alexa Fluor 488 (Thermo Fisher). Nuclei were counterstained with a DAPI-containing liquid […] mountant (ProLong™ Gold Antifade Mountant, Thermo Fisher). Mitochondria were stained with 200 nM Mitotracker Red for 45 min Image were acquired by confocal microscopy.\n5×10^6 isolated T cells were stimulated on cell-culture plates coated with 1:200 α-CD3 (145-2C11; 100339; BioLegend) and α-CD28 (37.51; 102115, Biolegend) for the indicated time points. After centrifugation for 5 mins at 1500 rpm, cell pellets were resuspended in complete protein lysis buffer (50 mM Tris pH 7.5, 250 mM sodium chloride, 30 mM EDTA, 25 mM sodium pyrophosphate, 1% Triton-X 100, 0.5% NP-40, 10% glycerol and 1 mM DTT) supplemented with protease and phosphatase inhibitors (Roche). When subcellular location of Pgam5 was studied, a cell fractionation kit (Abcam, Ab109719) was used according to the manufacturer's instructions. Fractionation and whole-cell lysates were snap frozen and stored at −80° C. until further analysis. Collected lysates were mixed with 10% β-mercaptoethanol Laemmli buffer and denatured for 10 min at 70° C. Equal amounts of protein as assessed by Bradford measurement (Pierce™ Coomassie Plus (Bradford) Assay Reagent, ThermoFisher) were subjected to 10-15% SDS-PAGE, then transferred to […] PVDF membranes (MeckMillipore). Membranes were blocked for 30 mins in PBS-T/5% milk or PBST-T/5% BSA prior to antibody incubation overnight with the following antibodies: β-Actin (Sigma; #A4700), Gapdh (Santacruz; sc32233), Parkin (Santacruz; sc32283), Phospho-β-Catenin (CellSignaling; 9561), TOM20 (CellSignaling; D84TN; 42406S); pStat1 (Cellsignaling; 9167) and PGAM5 (Abcam; ab126534). Afterwards, membranes were incubated for one hour with their respective HRP-conjugated secondary antibodies (Santacruz: sc2314 and sc2313), followed by development using SuperSignal West Pico Chemoluminescence Substrate (ThermoFischer Scientific). 2D densitometry was performed using ImageJ Software (National Institutes of Health, Bethesda, Maryland)."}, "CD19-CAR T cells": {"tested_on": "CD19-CAR T cells", "assay_type": "cell-based, human"}},
  "data": [
    {"compound": "O=c1oc2cc(O)ccc2c2ccc(O)cc12", "note": "[UA, Urolithin A]", "values": [
      {"measurement": "UA-induced lysosome formation", "setting": "Pink1^−/− T cells; Loss of Pink1, 6 h, UA 50 μM", "value": "prevented"},
      {"measurement": "UA-induced decrease in mitochondrial content", "setting": "Pink1^−/− T cells; Loss of Pink1, 48 h, UA 50 μM", "value": "prevented"},
      {"measurement": "cytoplasmic expression of Pgam5", "setting": "Pink1^−/− T cells; Pink1-/- CD8+ T cells upon UA exposure", "value": "lack of cytoplasmic expression"},
      {"measurement": "PGC-1a", "setting": "Pink1^−/− T cells; Pink1-/- CD8+ T cells, 48 h, UA 50 μM", "value": "failed to enhance"},
      {"measurement": "TSCM phenotype", "setting": "Pink1^−/− T cells; Pink1-/- CD8+ T cells, 48 h, UA 25 and 50 μM", "value": "failed to exhibit a TSCM phenotype"},
      {"measurement": "TCF-1 in CD44-CD62L+CD8+ T cells", "setting": "Pink1^−/− T cells; Pink1-/-, 48 h, UA 50 μM", "value": "less"},
      {"measurement": "phosphorylation of Stat1", "setting": "T cells; UA treated T cells compared to vehicle controls", "value": "equal phosphorylation"},
      {"measurement": "Parkin protein expression", "setting": "T cells; immunoblot, 24 h, UA 50 μM", "value": "stabilized"},
      {"measurement": "b-catenin phosphorylation", "setting": "T cells; immunoblot, after 6 hours, UA 50 μM", "value": "marked decrease"},
      {"measurement": "Pgam5 localization", "setting": "T cells; sub-cellular fractionations and immunofluorescence, 6 h, UA 50 μM", "value": "rapidly released into the cytoplasma"},
      {"measurement": "gene delivery into CD8+ cells", "setting": "CD19-CAR T cells", "value": "did not impair"},
      {"measurement": "Markers of exhaustion of CAR T cells", "setting": "CD19-CAR T cells; UA supplementation", "value": "not affected"},
      {"measurement": "CAR expressing TSCM cells", "setting": "CD19-CAR T cells; three days post transduction, UA vs DMSO", "value": "markedly increased"},
      {"measurement": "CAR expressing TSCM cells, share of CD8+ cells", "setting": "CD19-CAR T cells; three days post transduction, upon UA exposure", "value": "about 60%"}
    ]}
  ]
}
